In PMC8970883, “Simultaneous Determination of Seven Phenolic Acids, Two Flavonoids, and Tussilagone in Rat Plasma after Administration of Farfarae Flos Extract by LC–MS/MS” (Evidence-based Complementary and Alternative Medicine : eCAM, 2022):
Like-named read-outs stand apart in the source and are kept apart here.

Columns and labels:
[1] = Pharmacokinetic study in rats after intragastric administration of Farfarae Flos extract (plasma, LC-MS/MS); assay type: in vivo; details: for Cmax / Tmax / half-life / MRT last / MRT inf: male; for Cmax: rat, plasma, po; for Tmax / half-life / MRT last / MRT inf / AUC(0–24h) / AUC(0–∞): rat plasma; for MRT last: read-out: MRT(0–24h); for MRT inf: read-out: MRT(0–∞)
Excerpt: A high-performance liquid chromatography instrument was used to separate three types of compounds (Agilent 1200 series, USA). The HPLC instrument is composed of four parts; a G1322A degasser, G1312A Bin Pump, G1367B auto-sampler, and G1316A thermostatic column compartment. Three types of compounds and three internal standards (ISs) were separated on an Eclipse Plus C18 (4.6 × 100 mm, 1.8 μm). The mobile phase was composed of formic acid aqueous solution (A) and formic acid methanol solution (B). The concentration of formic acid in both A and B solution was 0.1% (v/v). The gradient elution was as follows. The proportion of 10% B changes to 40% from 0 min to 3mins. 40% B changes to 90% from 16 to 18 min. B is maintained at 100% from 19 to 28 min. The flow rate, sample injected volume, and column temperature was 0.35 mL·min^−1, 10 μL, and 35°C, respectively.
Quantitative analysis of all samples was performed on Sciex API 3200 with an electrospray ionization (ESI) source. Analyst 1.6.2 workstation for instrument operation, data management, and data analysis were employed to analyze and process data (AB, Sciex). Ten analyzed compounds and three ISs were optimized during multiple reactions monitoring (MRM). […] MRM parameters of CCLA were set at 353.1-191.0. […] MRM parameters of IAB were set as 515.3-353.2 and MRM parameters of IAA were set at 515.2-353.0. MRM parameters of IAC and tussilagone were set as 515.3-352.9, 391.4-217.4, respectively.
Twenty male rats (4 months old, weight 240 ± 20 g) were obtained commercially from Vital River Laboratory Animal Company (Beijing, China). Before the pharmacokinetic experiments, they were free to eat food and drink water for one week for adapting to the environment when the dark light cycle was 12 hours, while the temperature was maintained at 25 ± 5°C. The animal experiments were guided and strictly approved by Tianjin Hospital animal ethics committee. They were fasted for 12 hours and could only drink freely water before intragastric administration of Farfarae Flos extract. Ten rats in each group were employed for eliminating data variation caused by different animal individuals. All rats in groups 1 and group 2 were orally administrated one time at two dosages of Farfarae Flos extract (carboxymethyl cellulose sodium salt (0.5%) was used to suspend the extract to prepare the administration solution 3.90 g·kg^−1 and 7.80 g·kg^−1), respectively. Rats were anesthetized with ether. The heparinized 1.5 mL polythene tube was used to collect bank plasma samples before administering dose of the extract. About 250 μL plasma samples were collected at each collecting points of 5 min, 10 min, 0.25 h, 0.50 h, 0.75 h, 1 h, 2 h, 4 h, 8 h, 12 h, 24 h, and 36 h via fossa orbitalis after dosing. All plasma samples from collecting points need to be centrifuged at 4,000 rpm for ten minutes. The supernatant fluid of centrifuged plasma samples was obtained and immediately stored at −20°C in a refrigerator until they were analyzed.
The maximum concentration (Cmax) and the time to reach the maximum concentration (Tmax) of ten target compounds were directly calculated by the real concentration-time data in the plasma. The data were expressed as mean ± SD.
Ten microliters of ISs solution (contained puerarin, ferulic acid, and artemisinin) and the plasma sample (100 μL) were added into a clean tube, and then acetonitrile (400 μL) was added to precipitate protein. After centrifugation at 14000 rpm for 10 minutes, a mild nitrogen flow was used to evaporate the liquid of the supernatant to dryness. Then, the residue was dissolved in methanol (100 μL). The solution was vortexed for 3 min, mixed for 3 minutes with ultrasound, and centrifuged for 10 min. Finally, the solution (10 μL) was used to detect concentration of ten target compounds in rat plasma.

[2] = Stability of QC samples in rat plasma (24 h, freeze-thaw, 4 weeks); assay type: in vitro ADME; details: six replicates; for Freeze-thaw stability, percent remaining: freeze-thaw cycles −20°C to 20°C; for Long stability Remain (%): stored at −80°C for 4 weeks; for 24 h stability Remain (%): 24 hours at 20°C
Experimental: Stock solution of 10 analytical compounds (1.00 mg·mL^−1) and three internal standards (ISs) was dissolved in methanol and placed in the refrigerator before testing. Methanol was used to prepare ferulic acid (IS1), puerarin (IS2), and artemisinin (IS3) solutions to reach a concentration of 1 μg mL^−1, respectively. A specific volume of each analyte stock solution is mixed together to prepare the standard working solution containing 10 analytes with a concentration of 10 times at LLOQ and three levels (high, medium, and low). Quality control (QC) samples for methodological validation were prepared to obtain the final concentration by adding standard working solution (10 μL) into blank plasma samples (100 μL).
Four concentration levels of ICB and ICA were 4, 12, 400, and 12000 ng mL^−1, respectively. Four concentration levels of caffeic acid were 10, 30, 1000, and 30000 ng·mL^−1, respectively.
In the stability test, 24-hour stability (The samples were placed for 24 hours at 20°C and then measured), freeze-thaw cycles (The sample was injected after the temperature changing from −20°C to 20°C), and 4 weeks stability (The sample was determined after stored at −80°C for 4 weeks) of representative QC samples were all tested. All of them were assayed with six replicates.

[3] = previous pharmacokinetic study on chlorogenic acid ref 15; cited from earlier work
[4] = 3.9 g/kg, oral Farfarae Flos extract 3.9 g·kg^−1, mean ± SD
[5] = oral Farfarae Flos extract 3.9 g·kg^−1, mean ± SD
[6] = oral Farfarae Flos extract 7.8 g·kg^−1, mean ± SD
[7] = high concentration level (3000-30000 ng·mL^−1)
[8] = low concentration level (3-30 ng·mL^−1)
[9] = medium concentration level (100-1000 ng·mL^−1)

O=C(/C=C/c1ccc(O)c(O)c1)O[C@@H]1C[C@](O)(C(=O)O)C[C@@H](O)[C@H]1O [CLA, chlorogenic acid]
Cmax [1, 4]: 538 ± 489 ng/mL | Tmax [1, 5]: 0.64 ± 0.244 h | half-life [1, 5]: 2.16 ± 1.46 h | MRT last [1, 5]: 4.4 ± 1.71 h | MRT inf [1, 5]: 5.41 ± 2.04 h | Tmax [1, 6]: 0.38 ± 0.14 h | half-life [1, 6]: 1.28 ± 0.56 h | MRT last [1, 6]: 4.63 ± 1.36 h | MRT inf [1, 6]: 5.32 ± 1.55 h | AUC(0–24h) [1, 5]: 1425 ± 1046 ng/mL ∗ h | AUC(0–∞) [1, 5]: 1467 ± 1044 ng/mL ∗ h | AUC(0–24h) [1, 6]: 3611 ± 1023 ng/mL ∗ h | AUC(0–∞) [1, 6]: 3692 ± 1052 ng/mL ∗ h | Freeze-thaw stability, percent remaining [2, 7]: 115% | Long stability Remain (%) [2, 7]: 112% | Long stability Remain (%) [2, 8]: 114% | Freeze-thaw stability, percent remaining [2, 9]: 88.7% | MRT [3]: 5.08 ± 0.89 h | Tmax [3]: 0.70 ± 0.19 h

O=C(O)/C=C/c1ccc(O)c(O)c1 [Caffeic acid, caffeic acid]
Cmax [1, 4]: 96.3 ± 36.6 ng/mL | Cmax ([1]; 7.8 g/kg, oral Farfarae Flos extract 7.8 g·kg^−1, mean ± SD): 106 ± 24.4 ng/mL | Tmax [1, 5]: 0.23 ± 0.04 h | half-life [1, 5]: 4.65 ± 4.89 h | MRT last [1, 5]: 6.47 ± 3.05 h | MRT inf [1, 5]: 14.8 ± 8.46 h | Tmax [1, 6]: 0.21 ± 0.04 h | half-life [1, 6]: 2.75 ± 2.71 h | MRT last [1, 6]: 4.81 ± 3.64 h | MRT inf [1, 6]: 15.6 ± 10.5 h | AUC(0–24h) [1, 5]: 338.9 ± 246.4 ng/mL ∗ h | AUC(0–∞) [1, 5]: 691.7 ± 477.5 ng/mL ∗ h | AUC(0–24h) [1, 6]: 473.5 ± 273.8 ng/mL ∗ h | AUC(0–∞) [1, 6]: 723.9 ± 468.5 ng/mL ∗ h | 24 h stability Remain (%) [2, 7]: 90.7% | Freeze-thaw stability, percent remaining [2, 7]: 85.5% | Long stability Remain (%) [2, 7]: 81.1% | 24 h stability Remain (%) [2, 8]: 81.1% | Freeze-thaw stability, percent remaining [2, 8]: 101% | Long stability Remain (%) [2, 8]: 113% | 24 h stability Remain (%) [2, 9]: 113% | Freeze-thaw stability, percent remaining [2, 9]: 87.2% | Long stability Remain (%) [2, 9]: 109%
